One test has as its system lipoxygenase. Briefly: Inhibition of lipoxygenase (liberation of leukotriene B4 in polymorphonuclear rat leukocytes, calcium ionophore, HPLC). Type of test: cell-based. To be noted: LTB4 liberation in rat PMN. The protocol:
(§1) The liberation of leukotriene B4 (LTB4) in polymorphonuclear rat leukocytes (PMN) after addition of substances and calcium ionophore was determined by means of reverse phase HPLC according to Sorgeat, P. et al, Proc. Nat. Acad. Sci. 76, 2148-2152 (1979) as a measure of the lipoxygenase inhibition. The in vivo activity of the compounds was determined using the mouse ear inflammation model according to Young, J. M. et al., J. of Investigative Dermatology 82, 367-371 (1984).

For another test, the system named is mouse ear inflammation. The test is described as follows: Mouse ear inflammation test. It counts as in vivo. How it is done: as §1

Take `O=S(=O)(Nc1ccc(OCc2ccc3ccccc3n2)cc1)c1ccc(Cl)cc1` [Example 73, N-[4-(quinolin-2-yl-methyloxy)phenyl]-4-chlorobenzenesulphonamide]: in the test on lipoxygenase, the “IC50 value, inhibition of lipoxygenase” value was determined as 0.1 µg/mL. On to `O=S(=O)(CCCCl)Nc1ccc(OCc2ccc3ccccc3n2)cc1` [Example 76, N-[4-(quinolin-2-yl-methyloxy)phenyl]-3-chloropropanesulphonamide], for which the “IC50 value, inhibition of lipoxygenase” value in the test on lipoxygenase is 0.046 µg/mL. Moreover, the “Inhibition of inflammation, %” value in the test with mouse ear inflammation (100 mg/kg per os) came to 37%. For the compound `Cc1ccnc2c(Oc3ccc(NS(=O)(=O)c4ccc(Cl)cc4)cc3)cccc12` [Example 58, N-[4-(4-methylquinolin-8-yloxy)phenyl]-4-chlorobenzenesulphonamide], the “Inhibition of inflammation, %” value in the test on mouse ear inflammation (2 mg/ear topical) is 58%.

In the case of `O=S(=O)(Nc1ccc(Oc2ccc3cccnc3c2)cc1)c1ccc(F)cc1` [Example 57, N-[4-(quinolin-7-yloxy)phenyl]-4-fluorobenzenesulphonamide], the “IC50 value, inhibition of lipoxygenase” value in the test on lipoxygenase was determined as 0.033 µg/mL. The same measure, in the same setting: next, `O=S(=O)(Nc1ccc(Oc2ccc3cccnc3c2)cc1)c1ccc(Cl)cc1` [Example 53, N-[4-(quinolin-7-yloxy)phenyl]-4-chlorobenzenesulphonamide]: 0.088 µg/mL.

As to `CCCCS(=O)(=O)Nc1ccc(OCc2ccc3ccccc3n2)cc1` [Example 75, N-[4-(quinolin-2-yl-methyloxy)phenyl]butanesulphonamide], the “IC50 value, inhibition of lipoxygenase” value with lipoxygenase turned out to be 0.057 µg/mL. Moreover, the “Inhibition of inflammation, %” value came to 39% in the test on mouse ear inflammation (2 mg/ear topical) and 46% with mouse ear inflammation (100 mg/kg per os). With `O=S(=O)(Nc1ccc(OCc2ccc3ccccc3n2)cc1)c1cccc(C(F)(F)F)c1` [Example 74, N-[4-(quinolin-2-yl-methyloxy)phenyl]-3-trifluoromethylbenzenesulphonamide], the “IC50 value, inhibition of lipoxygenase” value in the test on lipoxygenase worked out at 0.1 µg/mL. On the same count and under the same terms, the figure for `O=S(=O)(Nc1ccc(Oc2ccc3cccnc3c2)cc1)c1cccc(C(F)(F)F)c1` [Example 54, N-[4-(quinolin-7-yloxy)phenyl]-3-trifluoromethylbenzenesulphonamide] is 0.17 µg/mL. As for `CCCC(C)S(=O)(=O)Nc1ccc(OCc2ccc3ccccc3n2)cc1` (centres unmarked) [Example 78, N-[4-(quinolin-2-yl-methyloxy)phenyl]-1-methylbutanesulphonamide], the “IC50 value, inhibition of lipoxygenase” value in the test with lipoxygenase came to 0.074 µg/mL. In addition, the “Inhibition of inflammation, %” value in the test on mouse ear inflammation (2 mg/ear topical) worked out at 65%. Turning to `O=S(=O)(Nc1ccc(Oc2cccc3cccnc23)cc1)c1cccc(C(F)(F)F)c1` [Example 44, N-[4-(quinolin-8-yloxy)phenyl]-3-trifluoromethylbenzenesulphonamide], in the test with mouse ear inflammation (100 mg/kg per os), the “Inhibition of inflammation, %” value was 38%.

For the origin of these results see patent US5070096A, “Quinolinoxy phenylsulphonamides” (Bayer Aktiengesellschaft, priority 1986, dated 1991).
